Experimental data taken from ChEMBL document CHEMBL1909046, “DrugMatrix in vitro pharmacology data”.

Assays:
[1] = target: T1, Alpha-1D adrenergic receptor (Homo sapiens, UniProt P25100); assay type: cell membranes, HEK293, Membrane; details: for Ki: read-out: Ki; on all read-outs here: in other assays of this panel Not Active means under 50% inhibition at 10 µM
T1 sequence (P25100 whole entry): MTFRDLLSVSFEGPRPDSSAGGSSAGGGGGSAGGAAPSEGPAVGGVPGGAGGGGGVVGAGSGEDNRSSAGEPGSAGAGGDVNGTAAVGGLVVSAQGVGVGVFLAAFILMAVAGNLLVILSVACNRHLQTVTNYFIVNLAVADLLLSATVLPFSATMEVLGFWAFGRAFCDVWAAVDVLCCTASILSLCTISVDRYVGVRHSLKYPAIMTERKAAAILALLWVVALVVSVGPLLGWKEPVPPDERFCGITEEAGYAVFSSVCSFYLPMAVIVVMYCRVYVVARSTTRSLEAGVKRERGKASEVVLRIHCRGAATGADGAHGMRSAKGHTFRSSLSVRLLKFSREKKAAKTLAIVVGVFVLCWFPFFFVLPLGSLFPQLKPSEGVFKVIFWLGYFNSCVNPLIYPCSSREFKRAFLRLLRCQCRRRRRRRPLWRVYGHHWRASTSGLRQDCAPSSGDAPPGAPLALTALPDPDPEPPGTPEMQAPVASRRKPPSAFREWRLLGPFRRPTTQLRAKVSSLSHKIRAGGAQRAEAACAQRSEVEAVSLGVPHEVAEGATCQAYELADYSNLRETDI

[2] = target: Mitogen-activated protein kinase 1 (Homo sapiens, UniProt P28482); assay: DRUGMATRIX: Protein Serine/Threonine Kinase, ERK2 enzyme inhibition (substrate: Myelin Basic Protein); design: species or system Escherichia coli; details: Not Active = under 50% inhibition at 10 µM
Sequence of Mitogen-activated protein kinase 1 (P28482 whole entry): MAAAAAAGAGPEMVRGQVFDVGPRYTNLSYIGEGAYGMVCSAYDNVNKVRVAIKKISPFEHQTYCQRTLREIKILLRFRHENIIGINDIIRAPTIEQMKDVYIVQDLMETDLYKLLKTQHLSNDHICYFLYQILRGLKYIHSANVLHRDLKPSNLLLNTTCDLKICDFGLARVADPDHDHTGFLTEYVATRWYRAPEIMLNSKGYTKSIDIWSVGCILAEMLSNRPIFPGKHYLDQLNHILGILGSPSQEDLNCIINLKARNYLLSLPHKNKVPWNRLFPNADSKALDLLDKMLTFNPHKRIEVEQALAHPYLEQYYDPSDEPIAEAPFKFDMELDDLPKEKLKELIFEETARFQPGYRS

[3] = target: T2, Nitric oxide synthase, inducible (Mus musculus, UniProt P29477); design: species or system Escherichia coli;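 further: inhibition of iNOS enzyme activity measured with L-arginine as substrate; in other assays of this panel Not Active means under 50% inhibition at 10 µM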
T2 sequence (P29477 whole entry): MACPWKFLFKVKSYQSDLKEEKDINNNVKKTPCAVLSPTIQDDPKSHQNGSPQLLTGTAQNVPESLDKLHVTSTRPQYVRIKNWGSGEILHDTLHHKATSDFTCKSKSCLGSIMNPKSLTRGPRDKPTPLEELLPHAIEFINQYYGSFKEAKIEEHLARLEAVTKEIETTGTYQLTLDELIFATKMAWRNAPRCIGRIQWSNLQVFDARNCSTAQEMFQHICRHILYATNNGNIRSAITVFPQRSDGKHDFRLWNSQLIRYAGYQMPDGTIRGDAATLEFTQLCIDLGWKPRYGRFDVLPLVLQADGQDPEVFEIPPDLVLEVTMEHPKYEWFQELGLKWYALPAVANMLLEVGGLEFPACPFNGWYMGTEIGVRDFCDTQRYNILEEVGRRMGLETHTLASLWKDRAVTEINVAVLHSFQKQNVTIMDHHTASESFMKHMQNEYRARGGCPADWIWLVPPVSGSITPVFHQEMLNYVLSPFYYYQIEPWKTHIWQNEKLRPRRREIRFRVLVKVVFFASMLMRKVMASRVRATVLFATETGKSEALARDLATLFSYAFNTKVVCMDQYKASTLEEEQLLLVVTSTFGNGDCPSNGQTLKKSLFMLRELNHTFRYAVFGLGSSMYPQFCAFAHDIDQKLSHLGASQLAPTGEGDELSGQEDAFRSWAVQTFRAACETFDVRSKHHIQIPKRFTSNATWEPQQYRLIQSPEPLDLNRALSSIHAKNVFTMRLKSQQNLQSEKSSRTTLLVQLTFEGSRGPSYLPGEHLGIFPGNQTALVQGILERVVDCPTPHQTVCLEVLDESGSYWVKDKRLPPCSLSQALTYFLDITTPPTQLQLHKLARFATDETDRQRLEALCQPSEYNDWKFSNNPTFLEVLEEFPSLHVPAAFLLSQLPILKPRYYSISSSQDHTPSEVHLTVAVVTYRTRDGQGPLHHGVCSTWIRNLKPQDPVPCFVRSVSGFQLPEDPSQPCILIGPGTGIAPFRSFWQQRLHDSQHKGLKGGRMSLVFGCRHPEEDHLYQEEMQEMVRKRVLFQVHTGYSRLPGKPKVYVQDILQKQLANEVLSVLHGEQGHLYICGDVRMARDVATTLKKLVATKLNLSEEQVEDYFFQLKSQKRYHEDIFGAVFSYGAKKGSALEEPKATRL

[4] = target: Protein kinase C alpha type (Homo sapiens, UniProt P17252); assay type: cell-based; details: sf9;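 further: inhibition of PKCalpha kinase activity measured in an enzyme assay with histone as the phosphorylation substrate; in other assays of this panel Not Active means under 50% inhibition at 10 µM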
[5] = target: T3, Vasoactive intestinal polypeptide receptor 1 (Homo sapiens, UniProt P32241); assay type: cell membranes, Membrane; details: ht-29; further: in other assays of this panel Not Active means under 50% inhibition at 10 µM
T3 sequence (P32241 whole entry): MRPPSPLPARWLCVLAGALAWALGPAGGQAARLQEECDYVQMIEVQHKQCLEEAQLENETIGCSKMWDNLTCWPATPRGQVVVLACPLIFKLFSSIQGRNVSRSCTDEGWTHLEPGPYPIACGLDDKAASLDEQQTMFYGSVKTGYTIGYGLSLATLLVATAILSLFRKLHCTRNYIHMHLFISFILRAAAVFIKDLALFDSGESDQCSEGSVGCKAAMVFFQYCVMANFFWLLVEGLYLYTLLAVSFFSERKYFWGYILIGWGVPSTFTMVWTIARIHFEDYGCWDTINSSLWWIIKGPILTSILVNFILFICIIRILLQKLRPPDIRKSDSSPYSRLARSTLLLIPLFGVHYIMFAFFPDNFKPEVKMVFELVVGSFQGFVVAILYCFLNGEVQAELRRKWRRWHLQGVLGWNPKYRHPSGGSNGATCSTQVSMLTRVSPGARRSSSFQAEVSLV

[6] = DRUGMATRIX: Glutamate, AMPA radioligand binding (ligand: [3H] AMPA); assay type: cell membranes, Rattus norvegicus, Wistar, Cerebral cortex, Membrane; details: Not Active = under 50% inhibition at 10 µM
[7] = target: Mitogen-activated protein kinase 3 (Homo sapiens, UniProt P27361); assay: DRUGMATRIX: Protein Serine/Threonine Kinase, ERK1 enzyme inhibition (substrate: Myelin Basic Protein); design: species or system Escherichia coli; details: Not Active = under 50% inhibition at 10 µM
Sequence of Mitogen-activated protein kinase 3 (P27361 whole entry): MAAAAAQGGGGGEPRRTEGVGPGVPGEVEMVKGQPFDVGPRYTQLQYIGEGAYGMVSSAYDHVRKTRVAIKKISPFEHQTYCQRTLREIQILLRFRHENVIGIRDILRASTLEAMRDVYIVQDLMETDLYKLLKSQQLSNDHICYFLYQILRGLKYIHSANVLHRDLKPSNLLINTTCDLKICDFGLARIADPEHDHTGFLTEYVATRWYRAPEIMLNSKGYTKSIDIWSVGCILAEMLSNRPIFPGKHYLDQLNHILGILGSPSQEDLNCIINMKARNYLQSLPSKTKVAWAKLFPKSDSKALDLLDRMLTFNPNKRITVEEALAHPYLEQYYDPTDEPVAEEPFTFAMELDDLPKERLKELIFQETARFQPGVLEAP

[8] = target: Cytochrome P450 3A4 (Homo sapiens, UniProt P08684); details: bti-tn-5b1-4; further: in other assays of this panel Not Active means under 50% inhibition at 10 µM
Sequence of Cytochrome P450 3A4 (P08684 whole entry): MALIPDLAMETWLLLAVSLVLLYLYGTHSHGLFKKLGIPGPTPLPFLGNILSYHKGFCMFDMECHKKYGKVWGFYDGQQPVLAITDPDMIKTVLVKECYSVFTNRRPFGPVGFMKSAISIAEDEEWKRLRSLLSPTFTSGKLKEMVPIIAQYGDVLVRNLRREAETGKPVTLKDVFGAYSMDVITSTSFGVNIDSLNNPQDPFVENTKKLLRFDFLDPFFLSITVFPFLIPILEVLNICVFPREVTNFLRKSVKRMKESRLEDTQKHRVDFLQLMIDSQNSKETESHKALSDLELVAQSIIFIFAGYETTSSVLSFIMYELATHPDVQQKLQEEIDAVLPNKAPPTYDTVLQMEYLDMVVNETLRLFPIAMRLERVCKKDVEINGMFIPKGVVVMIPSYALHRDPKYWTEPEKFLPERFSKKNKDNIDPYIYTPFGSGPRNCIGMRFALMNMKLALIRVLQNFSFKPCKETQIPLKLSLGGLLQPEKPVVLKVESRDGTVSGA

Row | Structure (SMILES) | IC50 ([1]; hek293) | IC50 [2] | IC50 [3] | IC50 [4] | IC50 [5] | IC50 [6] | Ki [6] | IC50 [7] | IC50 [8] | Ki [8] | IC50 ([1]; read-out: IC50) [nM] | Ki [1] [nM]
1 | CC1=C(CC(=O)O)c2cc(F)ccc2/C1=C\c1ccc([S+](C)[O-])cc1 (stereo unspecified) | Not Active | Not Active | Not Active | Not Active | Not Active | Not Active | Not Active | Not Active | Not Active | Not Active |  | 
2 | N[C@H](CSC(=S)NCc1ccccc1)C(=O)O | Not Active | Not Active | Not Active | Not Active | Not Active | Not Active | Not Active | Not Active | Not Active | Not Active |  | 
3 | CC(=O)N[C@@H]1[C@H](Oc2c3cc4cc2Oc2ccc(cc2Cl)[C@@H](O[C@@H]2O[C@@H](CO)[C@@H](O)[C@H](O)[C@@H]2NC(C)=O)[C@@H]2NC(=O)[C@H](NC(=O)[C@@H]4NC(=O)[C@H]4NC(=O)[C@@H](Cc5ccc(c(Cl)c5)O3)NC(=O)[C@H](N)c3ccc(O)c(c3)Oc3cc(O)cc4c3)c3ccc(O)c(c3)-c3c(O[C@H]4O[C@H](CO)[C@@H](O)[C@@H](O)[C@@H]4O)cc(O)cc3[C@@H](C(=O)O)NC2=O)O[C@@H](CO)[C@@H](O)[C@@H]1O | Not Active | Not Active | Not Active | Not Active | Not Active | Not Active | Not Active | Not Active | Not Active | Not Active |  | 
4 | Clc1ccc2c(c1)C(N1CCNCC1)=Nc1ccccc1O2 [AMOXAPINE] |  | Not Active | Not Active | Not Active | Not Active |  |  | Not Active | Not Active | Not Active | 306 | 150
5 | COc1cc2c(c(OC)c1OC)-c1ccc(OC)c(=O)cc1[C@@H](NC(C)=O)CC2 [COLCHICINE] | Not Active | Not Active | Not Active | Not Active | Not Active |  |  | Not Active |  |  |  | 
6 | CN1CCC(=C2c3ccccc3C=Cc3ccccc32)CC1 [CYPROHEPTADINE] |  | Not Active | Not Active | Not Active | Not Active |  |  | Not Active | Not Active | Not Active | 107 | 53
7 | CC/C(=C(/CC)c1ccc(O)cc1)c1ccc(O)cc1 [DIETHYLSTILBESTROL] |  | Not Active | Not Active | Not Active | Not Active |  |  | Not Active | Not Active | Not Active | 10800 | 5320
8 | CC(=O)N1CCN(c2ccc(OCC3COC(Cn4ccnc4)(c4ccc(Cl)cc4Cl)O3)cc2)CC1 (stereo unspecified) [KETOCONAZOLE] | Not Active | Not Active | Not Active | Not Active | Not Active | Not Active | Not Active | Not Active |  |  |  | 
9 | C=CCN1CC[C@]23c4c5ccc(O)c4O[C@H]2C(=O)CC[C@@]3(O)[C@H]1C5 [NALOXONE] | Not Active | Not Active | Not Active | Not Active | Not Active |  |  | Not Active |  |  |  | 
10 | COCCOC(=O)C1=C(C)NC(C)=C(C(=O)OC(C)C)C1c1cccc([N+](=O)[O-])c1 (stereo unspecified) [NIMODIPINE] | Not Active | Not Active | Not Active | Not Active | Not Active | Not Active | Not Active | Not Active |  |  |  | 
11 | CC(C)NCC(O)COc1cccc2ccccc12 (stereo unspecified) [PROPRANOLOL] | Not Active | Not Active | Not Active | Not Active | Not Active |  |  | Not Active | Not Active | Not Active |  | 
12 | CC(C)c1nc(CN(C)C(=O)N[C@H](C(=O)N[C@@H](Cc2ccccc2)C[C@H](O)[C@H](Cc2ccccc2)NC(=O)OCc2cncs2)C(C)C)cs1 [RITONAVIR] | Not Active | Not Active | Not Active | Not Active | Not Active | Not Active | Not Active | Not Active |  |  |  | 
